# Data reported in US11647748B2, “Sulphonamides as methionine metabolic pathway inhibitors” (MIGAL-GALILEE RESEARCH INSTITUTE LTD., priority 2018, dated 2023).
# How the values were obtained:
# Arabidopsis thaliana = experiment: Arabidopsis root length (root growth inhibition); type: in vivo; conditions: 50 μM compound; for Arabidopsis (relative to DMSO): root length ratio vs DMSO control, lower = shorter root; for Arabidopsis root length: ratio vs DMSO control, Table 4
# Description: Finally, FIGS. 7a-7h are the photos of the Arabidopsis thaliana plants and the inhibition of their roots growth by the compounds of the present invention. These experiments were conducted as follows. Seeds were washed with 70% ethanol for one minute and then with sterile water. Sterilisation was performed with 50% bleaching solution (3%) and 0.2% Triton x-100 for ten minutes followed by a five-time wash with sterile water. The seeds were placed in six well-plates with half Murashige and Skoog medium (MS; Duchefa, Haarlem, Netherlands), containing 1% sucrose (w/v), pH 5.8. The plates with Arabidopsis thaliana seeds were placed at 4° C. for two days and then transferred for seven days to growth chamber (22±2° C.) at day/light cycles of 16/8 h. The plates were placed vertically. In each plate, a control including 0.1% DMSO in the medium was added. The compounds of the present invention were tested for their herbicidal efficiency by diluting 1000 times a 50 mM stock in DMSO leading to a final concentration of 50 μM with 0.1% DMSO.
# In Tables 1 and 2 above, Arabidopsis root length was measured after addition of 50-μM compound compared with the negative control (DMSO) treatment. Length values indicate the ratio between non-treated plates ([…]) and the length after the addition of 50 μM of each compound. Lower values indicate shorter root length, and consequently, larger effect.
# BY2 Tobacco cells = experiment: BY-2 viability assay (PrestoBlue); type: cell-based; conditions: viability relative to DMSO-treated cells, 25 μM, 48 hours; for Tobacco cells BY-2 (all (relative to DMSO)): Table 3; for Tobacco cells BY-2 results/DMSO: Table 5
# Description: Reference is now made to FIG. 5 showing the BY-2 viability assay. In this assay, the viability of BY2 Tobacco cells was tested following treatment with the compounds of the present invention. For this purpose, cells were cultured in Murashige and Skoog basal medium (Sigma-Aldrich, Cat #M0404), supplemented with 2,4-dichloro-phenoxyacetic acid (0.2 mg/L), and sucrose (3%), and incubated in the dark, at 25° C. and then sub-cultured at a 1:15 dilution in fresh media every 7 days.
# Before treatment, the cell suspension was adjusted to OD=0.4 (at 600 nm) and seeded in 6 well plates with a volume of 3 ml […]. The exemplified compounds were then added to the wells, at a final concentration of 25 μM (0.05% DMSO), and incubated for 48 hours. Cellular viability was measured using the commercially available PrestoBlue™ assay (ThermoFisher Scientific, PrestoBlue™ Cell Viability Reagent Cat #A13261). The PrestoBlue™ reagent is a cell-permeant non-fluorescent compound, which is reduced by metabolically active cells and providing a quantitative fluorescent signal. In the assay, 10 μL of the PrestoBlue™ reagent was added to 90 μL of the treated cells and fluorescence measurements were performed done with excitation/emission wavelengths of 560/590 nm in Tecan M200 plate reader.
# Tables 1-3 and also the following Table 5 show the results of the BY-2 viability assay described above.
# Tobacco CGS [1] = target: T1, Tobacco CGS (Nicotiana tabacum, UniProt Q9ZPL5); experiment: TEV experiment (relative to DMSO); type: biochemical; set-up: 6xHIS (N, cleaved yes); GB1 solubility tag (N, cleaved yes); made in house; host or cells: E. coli BL-21
# T1 sequence (Q9ZPL5 79-540): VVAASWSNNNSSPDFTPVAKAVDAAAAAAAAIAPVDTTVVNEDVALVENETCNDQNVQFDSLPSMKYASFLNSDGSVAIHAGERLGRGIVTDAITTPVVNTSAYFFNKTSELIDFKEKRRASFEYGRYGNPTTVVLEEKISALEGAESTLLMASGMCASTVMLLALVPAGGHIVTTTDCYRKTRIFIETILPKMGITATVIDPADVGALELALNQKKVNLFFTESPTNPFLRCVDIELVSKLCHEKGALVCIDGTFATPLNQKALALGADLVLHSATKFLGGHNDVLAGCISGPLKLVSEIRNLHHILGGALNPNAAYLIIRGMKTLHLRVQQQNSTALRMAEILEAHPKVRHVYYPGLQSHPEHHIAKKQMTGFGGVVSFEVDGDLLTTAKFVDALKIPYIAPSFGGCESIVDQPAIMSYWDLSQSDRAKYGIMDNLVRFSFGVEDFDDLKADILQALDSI
# Description: As discussed above, the first reaction in methionine biosynthesis in plants is catalyzed by the CGS enzyme. In this reaction, the formation of cystathionine is conducted by the γ-replacement of the phosphoryl substituent of O-phospho-homoserine by cysteine and consecutive release of an orthophosphate group.
# Expression of recombinant CGS was done by transforming the pET-11 vector containing the DNA sequence of Tobacco CGS with a 6×HIS tag and GB1 solubility tag followed by TEV cleavage site into BL-21 cells. These cells were cultured at 37° C. and optical density (OD)=0.8 protein at 600 nm, and the expression was induced by addition of 1 mM IPTG for 16 hours at 25° C. The protein was purified to homogeneity onto nickel column and cleaved by o/n dialysis with the TEV protease. A second nickel column was used to separate the cleaved CGS from the TEV and GB1 solubility tag.
# The direct activity of CGS was tested using the Malachite Green Phosphate Assay Kit (Sigma-Aldrich, cat #MAK307-1KT). It is a highly sensitive and robust experiment used to measure the release of free orthophosphate group based on quantification of the green-coloured complex formed between Malachite Green, molybdate, and free orthophosphate. The rapid colour formation from the reaction can be conveniently measured on a spectrophotometer via the absorbance at 620 nm.
# The assay mixture (100 μl) contained 50 mM MOPS-NaOH (pH 7.5), 150 mM NaCl, 0.1 mM PLP and 1 μM purified CGS. The compounds of the present invention were added at a final concentration of 50 μM and reactions were initiated by adding 2 mM cysteine and 3 mM 0-phospho-L-homo-serine. After two-hour incubation at 25° C., 80 μL of each sample were transferred into a new 96 well-plate containing 20 μl of Malachite Green Reagent and incubated for additional 30 min at 25° C. Colour development was measured by a plate reader Tecan M200 (620 nm).
# Roquette = Roquette assay spray; type: in vivo
# Tobacco CGS [2] = target: T1, Tobacco CGS; experiment: Micro Scale Thermophoresis (MST) direct binding to CGS; set-up: 6xHIS (N, cleaved yes); GB1 solubility tag (N, cleaved yes); made in house; host or cells: E. coli BL21; conditions: score on scale 0-5; Table 3
# Description: The direct binding of the compounds of the embodiments to the CGS was tested by Micro Scale Thermophoresis (MST). In the MST assay, the CGS protein was labelled with a fluorophore, the samples were heated, and changes in fluorescence were measured as a function of the ligand concentration. In the MST assay, similar to the expression and purification described above, the recombinant Tobacco CGS protein was expressed in E. coli BL21 cells and purified to homogeneity. For that particular purpose, the pET-11 vector containing the DNA sequence of Tobacco CGS with an N-terminus 6×HIS tag followed by a TEV-cleavable GB1 solubility tag was cloned and transformed into the bacteria cells. Cells were cultured to OD=0.8, and protein expression was induced by the addition of 1 mM IPTG. The cells were cultured for additional 16 hours temperature 25° C.
# Following cellular lysis, the soluble fraction was passed through the nickel column and the bound HIS-tagged protein was eluted by 300 mM imidazole. […]
# Thus, the MST assay was performed to measure the biding of the compounds to the CGS protein. […] The MST binding curves were then measured using the Monolith NT.115 apparatus by incubating the labelled protein with the indicated compounds in a dose-response manner.
# [3] = system: E. coli cells lacking the endogenic MetB CGS gene and transformed to express the CGS from Arabidopsis; experiment: E. coli specificity (MOA): growth of E. coli expressing Arabidopsis CGS with and without methionine; type: cell-based; conditions: score
# Description: In addition to the direct binding evaluation, specific assay to test the compounds activity and specificity were also developed. In this assay, E. coli cells, lacking the endogenic MetB CGS gene and transformed to express the CGS from Arabidopsis, were used. These cells were grown on M9 minimal media with and without external methionine supplemented to the cells, in the presence of the compounds of the embodiments. These selected compounds of the embodiments, capable of inhibiting the cell growth on M9, but incapable of affecting the cell growth when supplemented with methionine, were validated as methionine-pathway specific inhibitors.
# In this assay, Methionine auxotroph E. coli mutant was transformed with PQE-30 vector containing the Arabidopsis CGS gene as previously described in Yael Hacham et al., Plant Physiol., February 2002, 128(2): 454-462. In order to test the effect of the small molecule inhibitors on the CGS and methionine pathway, growth curves of the E. coli in M9 minimal media with 100 μM IPTG were measured with and without the addition of external methionine (40 mg/L) in the presence of variable compound concentrations. E. coli growth curves were measured by following the optical density at 600 nm of bacteria in 96 well-plate placed within Tecan M200 plate reader in orbital shaking mode at 37° C. The slope of each curve was estimated using the ‘finest’ function in Excel.
structure (smiles),measurement,setting,value
COc1cccc2c1[C@@H](C(=O)O)CN2S(=O)(=O)/C=C/c1cccc(Cl)c1,Arabidopsis (relative to DMSO),Arabidopsis thaliana; Table 1,0.01
same,Tobacco cells BY-2 (relative DMSO),BY2 Tobacco cells; Table 1,7
same,TEV (relative to DMSO),Tobacco CGS [1]; Table 1,0.22
O=C(O)C1Cc2ccccc2N1S(=O)(=O)C1Cc2ccccc2C1 (stereo not shown),TEV (relative to DMSO),Tobacco CGS [1]; Table 2,0.13
O=C(O)C1Cc2ccccc2N1S(=O)(=O)c1ccc2ccccc2c1 (stereo not shown),Arabidopsis (relative to DMSO),Arabidopsis thaliana; Table 2,0.20
same,Tobacco cells BY-2 (relative DMSO),BY2 Tobacco cells; Table 2,30
same,TEV (relative to DMSO),Tobacco CGS [1]; Table 2,0.09
same,Roquette assay spray (twice average),Roquette; Table 2,2.5
O=S(=O)(Cc1ccccc1F)Nc1ccc2nncn2c1,Tobacco cells BY-2 (all (relative to DMSO)),BY2 Tobacco cells,0
same,MST Tobacco (0-5),Tobacco CGS [2],5
CCc1nc(-c2cccc(NS(=O)(=O)c3cccc(OC)c3)c2)no1 [IML-227],Arabidopsis root length,Arabidopsis thaliana,0.36
same,Tobacco cells BY-2 results/DMSO,BY2 Tobacco cells,33
O=C(O)C1CN(S(=O)(=O)/C=C/c2ccc(Cl)cc2)c2ccccc21 (stereo not shown),Arabidopsis (relative to DMSO),Arabidopsis thaliana; Table 1,0.04
same,Tobacco cells BY-2 (relative DMSO),BY2 Tobacco cells; Table 1,21
same,TEV (relative to DMSO),Tobacco CGS [1]; Table 1,0.39
same,Roquette assay spray (twice average),Roquette; Table 1,3.0
Cc1nc(-c2cccc(S(=O)(=O)Nc3cccc(C(=O)O)c3)c2)cs1 [IML-198],Arabidopsis root length,Arabidopsis thaliana,0.31
same,TEV-relative to DMSO,Tobacco CGS [1]; Table 6,0.71
COc1cccc(S(=O)(=O)Nc2cccc(-c3cn(Cc4ccccc4)nn3)c2)c1 [IML-226],Tobacco cells BY-2 results/DMSO,BY2 Tobacco cells,60
O=C(O)C1Cc2ccccc2CN1S(=O)(=O)/C=C/c1ccccc1 (stereo not shown),E. coli specificity (MOA),[3]; Table 1,4
same,Arabidopsis (relative to DMSO),Arabidopsis thaliana; Table 1,0.20
same,Tobacco cells BY-2 (relative DMSO),BY2 Tobacco cells; Table 1,46
O=C(O)CC1CN(S(=O)(=O)/C=C/c2ccccc2)c2ccccc21 (stereo not shown),E. coli specificity (MOA),[3]; Table 1,5
same,Arabidopsis (relative to DMSO),Arabidopsis thaliana; Table 1,0.08
same,Tobacco cells BY-2 (relative DMSO),BY2 Tobacco cells; Table 1,21
same,TEV (relative to DMSO),Tobacco CGS [1]; Table 1,0.25
same,Roquette assay spray (twice average),Roquette; Table 1,2.5
O=C(O)CC1CN(S(=O)(=O)/C=C/c2ccc(Cl)cc2)c2ccccc21 (stereo not shown),E. coli specificity (MOA),[3]; Table 1,2
same,Arabidopsis (relative to DMSO),Arabidopsis thaliana; Table 1,0.04
same,Tobacco cells BY-2 (relative DMSO),BY2 Tobacco cells; Table 1,12
same,Roquette assay spray (twice average),Roquette; Table 1,3.0
COc1cccc2c1CC(C(=O)O)N2S(=O)(=O)/C=C/c1ccccc1Cl (stereo not shown),Arabidopsis (relative to DMSO),Arabidopsis thaliana; Table 1,0.24
same,Tobacco cells BY-2 (relative DMSO),BY2 Tobacco cells; Table 1,17
same,Roquette assay spray (twice average),Roquette; Table 1,2.0
Cc1nc(-c2ccc(C)c(S(=O)(=O)Nc3cccc(C(=O)O)c3)c2)cs1 [IML-193],Arabidopsis root length,Arabidopsis thaliana,0.50
Cc1ccccc1CS(=O)(=O)Nc1ccc2nncn2c1,E. coli specificity (MOA),[3]; Table 3,5
same,Tobacco cells BY-2 (all (relative to DMSO)),BY2 Tobacco cells,0
